Assay [1] deals with Plasmodium falciparum. Description: In vitro antimalarial activity against Plasmodium falciparum D6 Africa. The class given is functional, organism-based.
The subject of assay [2] is Plasmodium falciparum. Description: In vitro antimalarial activity against Plasmodium falciparum W-2 Indochina. The class given is functional, organism-based.

Converted amounts (≈) assume the structure as drawn.

What is called IC50 is the concentration needed to halve the response being measured. Higher therefore signals lower potency. As for `CO[C@H]1O[C@]2(C)OO[C@]13[C@H](CCOCc1ccccc1)CCC[C@@H]3CC2(C)C`, the IC50 in the assay with Plasmodium falciparum [1] and in the assay on Plasmodium falciparum [2] was above 500 ng/mL each time.
`CO[C@H]1O[C@]2(C)OO[C@]13[C@H](CCO)CCC[C@@H]3C[C@@H]2C`: the half-inhibitory concentration (IC50) with Plasmodium falciparum [1] was 3.5 ng/mL (≈ 0.0122 µM); in the assay with Plasmodium falciparum [2], 4.5 ng/mL (≈ 0.0157 µM).
On to `CO[C@H]1O[C@]2(C)OO[C@]13[C@H](CCO)CCC[C@@H]3CC2(C)C`, for which the IC50 in the assay on Plasmodium falciparum [1] and in the assay with Plasmodium falciparum [2] was above 500 ng/mL in each case.
With `CO[C@H]1O[C@]2(C)OO[C@]13[C@H](CCO)CCC[C@@H]3C[C@H]2C`, the IC50 in the assay on Plasmodium falciparum [1] and in the assay with Plasmodium falciparum [2] was above 500 ng/mL throughout.
In the case of `C[C@@H]1CC[C@H]2[C@@H](C)C(=O)O[C@@H]3O[C@@]4(C)CC[C@@H]1[C@]32OO4` [ARTEMISININ], the IC50 with Plasmodium falciparum [1] and with Plasmodium falciparum [2] was 8 ng/mL (≈ 0.0283 µM) each time.

These data come from ChEMBL document CHEMBL1127643, “Mechanism-based design, synthesis, and in vitro antimalarial testing of new 4-methylated trioxanes structurally related to artemisinin: the importance of a carbon-centered radical for antimalarial activity” (J Med Chem, 1994).
